Test results as given in patent US20240376163A1, “PEPTIDE FOR INHIBITING CALCINEURIN AND USE THEREOF” (Seoul National University R&DB Foundation, priority 2023, published 2024).
Read-outs that look alike come from different tables or passages of the source. One block for each compound: values may come before it.

Key:
Jurkat T cells = assay: DMOG treatment of Jurkat T cells expressing CABIN1 peptide, immunoprecipitation and Western blotting; format: cell-based
Experimental: In FIG. 6A, Jurkat T cells expressing HA-mCherry-tagged CABIN1 peptide were treated with DMOG for 12 hours in a dose-dependent manner. In FIG. 6B, Jurkat T cells expressing HA-mCherry-tagged CABIN1 peptide were treated with 500 μM DMOG over time. Each cell lysate was immunoprecipitated with HA antibodies, and CNA bound to CABIN1 peptides was detected by Western blotting. HIF-1α was used as a positive control for DMOG treatment. In FIG. 6C, HEK293T cells were transfected with GST-tagged peptides and subjected to GST pull-down assay. Hydroxyproline and O-linked glycosylation of each peptide were detected by Western blotting. NC: negative control.
(§1) Cells were lysed in IP150 buffer and immunoprecipitated Flag- and HA-tagged proteins using Anti-FLAG® M2 Affinity Gel (Sigma-Aldrich) and Pierce™ Anti-HA Agarose (Thermo Fisher Scientific), respectively. Conventional methods were used to construct the buffer and subsequent processes (Kim, H. J. et al. Nuclear Acids Res. 46, 6544-6560 (2018)). To quantify the Western blotting results, band regions were measured using ImageJ (https://imagej.nih.gov/ij/).

p38a [1] = molecular target: T1, p38a (Homo sapiens, UniProt Q16539); assay: p38 inhibitor treatment of Jurkat T cells expressing CABIN1 peptide, immunoprecipitation and Western blotting; format: cell-based; set-up: endogenous in cells; host or cells: Jurkat T (E6-1); conditions: 10 μM, 16 hours
T1 sequence (Q16539 whole entry): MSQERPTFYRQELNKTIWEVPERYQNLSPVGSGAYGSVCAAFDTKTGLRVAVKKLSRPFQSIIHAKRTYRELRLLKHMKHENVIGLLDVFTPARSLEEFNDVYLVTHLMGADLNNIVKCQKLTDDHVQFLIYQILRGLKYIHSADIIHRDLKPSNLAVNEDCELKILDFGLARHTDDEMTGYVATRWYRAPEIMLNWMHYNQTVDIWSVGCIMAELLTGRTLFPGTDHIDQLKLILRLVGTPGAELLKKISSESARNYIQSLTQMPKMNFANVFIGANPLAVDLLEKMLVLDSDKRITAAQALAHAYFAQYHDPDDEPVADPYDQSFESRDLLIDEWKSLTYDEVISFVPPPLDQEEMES
Experimental: In FIG. 8A, Jurkat T cells expressing HA-mCherry-tagged CABIN1 peptide were treated with 40 nM PMA in a time-dependent manner. Phosphorylated threonine in peptides immunoprecipitated with HA antibody was detected with [PXpTP] antibody. […] In FIG. 8G, Jurkat T cells expressing HA-mCherry-tagged CABIN1 peptide were treated with 10 μM p38a inhibitor for 16 hours. Immunoprecipitation was performed with HA antibody and detected by Western blotting. In FIG. 8H, phosphorylated threonine and peptide-bound CNA in FIG. 8G were measured using ImageJ, and the ratio of phosphorylation and calcineurin bound to CABIN1 peptide was calculated (n=6). The values shown are mean±standard deviation. Statistical differences were determined using one-way analysis of variance. * p<0.05, ** p<0.01, *** p<0.001, CBB: Coomassie Brilliant Blue, NC: negative control.
as §1, with “Conventional methods were used to construct the buffer and subsequent processes (Kim, H. J. et al. Nuclear Acids Res. 46, 6544-6560 (2018)).” left out

CNA [2] = conditions: biotin-labeled peptides
Experimental: (§7) A His-pulldown assay was performed with 0.5 ml of IP150 buffer containing 0.5 mM EDTA. His-tagged CNA and GST-tagged peptides were mixed and captured on Ni-NTA agarose beads (Qiagen, Hilden, Germany). The beads were washed three times with binding buffer, and the proteins were analyzed by Western blotting. GST-tagged peptides were pulled down using Glutathione Sepharose™ 4 Fast Flow (Cytiva, Marlborough, MA, USA), and biotin-labeled peptides were pulled down using Streptavidin Agarose Resin (Thermo Fisher Scientific).

CNA [3] = conditions: SPR, CNA 1.25-10 nM
Experimental: Biacore T200 (Cytiva) was used to capture biotin-labeled peptides on the surface of Series S Sensor Chip SA (Cytiva). […] Each cycle was performed at 25° C. with 120 seconds of contact and 240 seconds of dissociation at a flow rate of 30 μl/min. The kinetics of the interaction were analyzed using BIAvaluation 3.2 RC1 (Cytiva).

CNA [4] = assay: Ka (1/MS)
Experimental: (§2) Table printed on a drawing sheet, FIG. 7G
Head of the field: Ka (1/MS)
(§3) FIG. 7A is the sequence of the CABIN1 peptide with a threonine to valine substitution (TV). […] In FIG. 7C, a luciferase reporter assay was performed to measure NFAT transcriptional activity in Jurkat T cells expressing GST-tagged CABIN1 peptides under PMA and ionomycin treatment (n=3). […] CNA bound to the peptide and phosphorylated threonine were detected by Western blotting. In FIG. 7E, phosphorylation of the 9th threonine of the CABIN1 peptide (threonine 2154 of full-length CABIN1) was detected by LC-MS/MS in Jurkat T cells. In FIG. 7F, an in vitro pull-down assay was performed using streptavidin-coupled agarose beads. CNA bound to the biotinylated peptide was detected with a His antibody. VEET peptide was used as a negative control. In FIG. 7G, CNA binding to biotinylated CABIN1 peptide according to the presence or absence of phosphorylation of the 9th threonine was measured by SPR. CNA concentration ranges are 1.25, 2.5, 5, and 10 nM. The kinetics of the interaction were calculated using the data of the CABIN1 peptide-captured cells minus the negative control peptide-captured cell. The values shown are mean±standard deviation. RU: […], NC: negative control.
(§4) First copying reader's note: SPR binding kinetics of the peptides to CNA; each cell holds the value together with its ± deviation. […]

CNA [5] = assay: Kd (1/S)
Experimental: as §2
Head of the field: Kd (1/S)
as §3, §4

CNAβ2 [6] = molecular target: T2, CNAβ2 (Homo sapiens, UniProt P16298); assay: Mammalian two-hybrid assay (GAL4 DBD-peptides, VP16 AD-CNAβ2, pG5-luc) in HEK293T cells; format: cell-based
T2 construct: expressed in transfected cells; host or cells: HEK293T
T2 sequence (P63098 2-170 partner limits assumed, other chains not shown): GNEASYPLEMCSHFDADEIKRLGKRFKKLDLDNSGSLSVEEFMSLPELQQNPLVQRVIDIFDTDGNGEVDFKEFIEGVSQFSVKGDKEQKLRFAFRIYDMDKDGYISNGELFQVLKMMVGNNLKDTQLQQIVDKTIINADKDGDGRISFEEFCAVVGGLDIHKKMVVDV
Experimental: (§5) To measure the transcriptional activity of NFAT, Jurkat T cells were cotransfected with GST-tagged peptides and NFAT-luc by electroporation. After 24 hours, the cells were pretreated with 0.5 μM FK506 for 1 hour and then treated with 40 nM PMA and 1 μM ionomycin for 8 hours. For mammalian two-hybrid assay, HEK293T cells were cotransfected with GAL4 DBD-tagged CABIN1, VIVIT, chimeric, and substituted peptides, VP16 activation domain-tagged CNAβ2, and pG5-luc (a luciferase reporter plasmid containing the GAL4 reaction promoter) for 24 hours. Harvested cells were lysed with luciferase assay lysis buffer (17 mM KH2PO4, 183 mM K2HPO4, pH 7.8, 0.2% [v/v] Triton X-100) and sonicated briefly. The luciferase activity against each cell lysate was measured using Infinite M200 (Tecan, Männedorf, and Switzerland). In addition, the expression level of the transfected protein was confirmed by Western blotting.

ERK2 = molecular target: T3, ERK2 (Homo sapiens, UniProt P28482); assay: In vitro kinase assay; format: biochemical; conditions: purified GST-tagged peptide
T3 construct: purchased Proqinase GmbH (Freiburg, Germany)
T3 sequence (P28482 whole entry): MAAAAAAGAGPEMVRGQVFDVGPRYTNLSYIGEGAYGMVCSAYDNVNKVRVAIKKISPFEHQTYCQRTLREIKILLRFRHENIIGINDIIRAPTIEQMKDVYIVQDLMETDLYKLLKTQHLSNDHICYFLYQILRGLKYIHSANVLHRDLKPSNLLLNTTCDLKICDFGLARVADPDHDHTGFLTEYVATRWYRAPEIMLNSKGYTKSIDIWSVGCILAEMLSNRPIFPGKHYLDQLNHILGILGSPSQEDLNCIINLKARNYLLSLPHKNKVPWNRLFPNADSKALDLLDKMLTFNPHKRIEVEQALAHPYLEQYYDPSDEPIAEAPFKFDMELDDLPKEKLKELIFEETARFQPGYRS
Experimental: (§6) Purified GST-tagged peptides were used for the in vitro kinase assay using activated recombinant kinase obtained from Proqinase GmbH (Freiburg, Germany). Kinase reactions were induced in reaction buffer (50 mM HEPES-NaOH, pH 7.5, 3 mM MgCl2, 3 mM MnCl2, 3 μM sodium orthobanadate, 1 mM dithiothreitol, 50 μM unlabeled ATP, 5 μCi 32P-γ-ATP) for 1 hour at 30° C. The reaction was stopped by the addition of 5× sample buffer, and proteins were isolated using SDS-PAGE. The gels were stained with Coomassie Brilliant Blue, dried, and developed on X-ray film.

p38a [7] = molecular target: T1, p38a; assay: In vitro kinase assay; format: biochemical; conditions: purified GST-tagged peptide
Experimental: as §6

JNK1 = molecular target: T4, JNK1 (Homo sapiens, UniProt P45983); assay: In vitro kinase assay; format: biochemical; conditions: purified GST-tagged peptide
T4 construct: purchased Proqinase GmbH (Freiburg, Germany)
T4 sequence (P45983 whole entry): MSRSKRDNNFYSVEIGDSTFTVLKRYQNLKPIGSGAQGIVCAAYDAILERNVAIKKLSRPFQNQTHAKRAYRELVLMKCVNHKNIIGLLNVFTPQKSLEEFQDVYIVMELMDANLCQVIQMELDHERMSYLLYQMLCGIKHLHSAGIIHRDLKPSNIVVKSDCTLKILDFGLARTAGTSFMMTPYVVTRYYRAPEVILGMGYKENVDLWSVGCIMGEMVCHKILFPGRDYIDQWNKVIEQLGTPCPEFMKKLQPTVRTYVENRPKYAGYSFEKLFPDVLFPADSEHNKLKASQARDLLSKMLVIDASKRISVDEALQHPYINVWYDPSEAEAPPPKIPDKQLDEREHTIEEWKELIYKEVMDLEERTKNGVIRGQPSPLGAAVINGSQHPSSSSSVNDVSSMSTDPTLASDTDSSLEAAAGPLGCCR
Experimental: as §6

CNAβ2 [8] = molecular target: T2, CNAβ2; assay: Immunoprecipitation assay of Flag-CNAβ2 and tagged peptides in HEK293T cells; format: cell-based
Experimental: as §1

CNA [9] = assay: In vitro His-pull down assay with purified protein; format: binding
Experimental: as §7

[10] = test system: NFAT transcriptional activity; assay: NFAT luciferase reporter assay in Jurkat T cells expressing GST-tagged peptides; format: cell-based; conditions: PMA and ionomycin treatment
Experimental: as §5

Compound: COC(=O)CNC(=O)C(=O)OC [DMOG, dimethyloxalylglycine]
- interaction between CABIN1 peptide and CNA (Jurkat T cells; DMOG dose-dependent 12 hours or 500 μM over time): had no effect on the interaction between CABIN1 peptide and CNA
- HIF-1α stabilization (Jurkat T cells; positive control for DMOG treatment): stabilized HIF-1α

- binding affinity of CABIN1 peptide for CNA (p38a [1]): reducing binding affinity for CNA
Compound: Cc1ccccc1C(=O)c1ccc(Nc2ccc(Br)cc2N)cc1Cl [EO 1428]
- phosphorylation of the CABIN1 peptide (p38a [1]): significantly reduced phosphorylation of the CABIN1 peptide

Compound: Biotin-AAAMAGFPPEITVTPP {pTHR} P [phosphorylated CABIN1-L-1]
- affinity for CNA (pull-down) (CNA [2]): dramatically increased the affinity for CNA
- increase of binding affinity to CNA, phosphorylated vs unphosphorylated CABIN1 peptide (CNA [3]; listed as phosphorylated CABIN1 peptide): about three times
- increase of binding affinity to CNA, phosphorylated vs unphosphorylated CABIN1 peptide (CNA [3]; listed as phosphorylated CABIN1 peptides): approximately three-fold

- dissociation rate constant (koff) (CNA [5]): 1.31e-3±6.1e-5 1/S
Compound: MAGFPPEITVTPPTP [CABIN1-L-1] [listing 1 of 2 here]
- association rate constant (kon) (CNA [4]): 2613.3±421.5 1/MS

Compound: MAGFPPEITVTPPTP [CABIN1-L-1] [listing 2 of 2 here]
- binding to CNA (CNAβ2 [6]; GAL4 DBD-tagged peptides, VP16 activation domain-tagged CNA, HEK293T): significantly stronger affinity for CNA than CABIN1-14

- phosphorylation by ERK2 (ERK2): phosphorylate
- phosphorylation by p38a (p38a [7]): phosphorylate
- phosphorylation by JNK1 (JNK1): phosphorylate
- improvement of interaction with CNA, VIVIT PPTP vs. VIVIT 10-mer (CNAβ2 [6]; C-terminus PPTP sequence): 4.76 fold
- improvement of interaction with CNA, VIVIT PPTP vs. L-1-2 WT (CNAβ2 [6]; N-terminus PVIVIT): 1.93 fold
Compound: PVIVITPPTP [VIVIT PPTP]

Compound: T6V: CABIN1 peptide with threonine 6 (threonine 2151 of full-length CABIN1) replaced with valine (PEITVVPPTP; left off: a dimerising Fc or GST; small tags and cut ends)
- interaction with CNA in cells (CNAβ2 [8]): loss of interaction between the CABIN1 peptide and CNA in cells and in vitro
- binding to CNA in vitro (CNA [9]): loss of interaction between the CABIN1 peptide and CNA in cells and in vitro

- interaction with CNA in cells (CNAβ2 [8]): loss of interaction in cell experiments
Compound: T9V: CABIN1 peptide with threonine 9 (threonine 2154 of full-length CABIN1) replaced with valine (PEITVTPPVP; left off: a dimerising Fc or GST; small tags and cut ends)
- NFAT transcriptional activity (luciferase activity) [10]: restored the transcriptional activity of NFAT inhibited by the wild-type CABIN1 peptide more efficiently than the T6V substitution
